From patent US7109354B2, “Thiophene amidines, compositions thereof, and methods of treating complement-mediated diseases and conditions” (3-Dimensional Pharmaceuticals, Inc., priority 2002, dated 2006) come the findings set out here.

Structures are written as SMILES. Structures can show the parent of a compound that is named as a salt.

The target of the experiment is T1, Activated human C1s (Homo sapiens, UniProt P09871).
T1 construct: purchased Calbiochem (La Jolla, Calif.)
T1 sequence (P09871 438-688 limits assumed): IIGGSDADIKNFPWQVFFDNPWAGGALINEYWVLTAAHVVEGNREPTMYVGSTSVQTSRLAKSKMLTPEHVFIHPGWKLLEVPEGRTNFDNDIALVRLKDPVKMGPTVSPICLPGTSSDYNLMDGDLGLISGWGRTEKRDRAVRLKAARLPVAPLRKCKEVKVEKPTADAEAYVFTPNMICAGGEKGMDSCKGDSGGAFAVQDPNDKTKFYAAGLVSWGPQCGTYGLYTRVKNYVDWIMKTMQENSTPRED
T1 sequence (P09871 16-437 partner limits assumed): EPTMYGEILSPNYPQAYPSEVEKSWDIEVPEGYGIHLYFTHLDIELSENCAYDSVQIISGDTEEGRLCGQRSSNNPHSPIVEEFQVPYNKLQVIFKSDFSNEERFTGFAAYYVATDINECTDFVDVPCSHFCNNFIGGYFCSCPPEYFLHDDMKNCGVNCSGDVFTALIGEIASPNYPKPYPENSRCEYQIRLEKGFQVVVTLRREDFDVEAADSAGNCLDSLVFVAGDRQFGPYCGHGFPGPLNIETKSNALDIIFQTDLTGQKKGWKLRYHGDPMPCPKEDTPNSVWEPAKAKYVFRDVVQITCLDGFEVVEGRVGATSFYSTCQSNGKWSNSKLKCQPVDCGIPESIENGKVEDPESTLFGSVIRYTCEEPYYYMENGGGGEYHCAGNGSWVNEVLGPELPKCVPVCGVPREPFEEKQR
Description: In vitro inhibition of C1s (Ki determination, C1s-catalyzed hydrolysis of Z-Gly-Arg-S-Bzl, DTNB readout). Format: biochemical. The following applies: substrate Z-Gly-Arg-S-Bzl 45 μM, DTNB 200 μM, C1s 2.3 nM, pH 7.5, 37° C., absorbance at 405 nm.
`CSc1sc(C(=N)N)cc1S(=O)(=O)c1cccc(-c2ccc(NC(N)=NCCCc3ccccc3)cc2C)c1` [Example 280, 4-{2′-Methyl-4′-[N′-(3-phenyl-propyl)-guanidino]-biphenyl-3-sulfonyl}-5-methylsulfanyl-thiophene-2-carboxamidine bistrifluoroacetate]: the Ki lay within 6 to 23 nM.
Next, `CSc1sc(C(=N)N)cc1S(=O)(=O)c1cccc(-c2ccc(NC(=N)NCCC(C)C)cc2C)c1` [Example 282, 4-{2′-Methyl-4′-[N′-(3-methyl-butyl)-guanidino]-biphenyl-3-sulfonyl}-5-methylsulfanyl-thiophene-2-carboxamidine bistrifluoroacetate]: 6 to 23 nM.
With `CSc1sc(C(=N)N)cc1S(=O)(=O)c1cccc(-c2c(C)cc(NC(=O)NCCCS(C)(=O)=O)cc2NC(=O)NCCCS(C)(=O)=O)c1` [Example 294, 4-{4′,6′-Bis-[3-(3-methanesulfonyl-propyl)-uredo]-2′-methyl-biphenyl-3-sulfonyl}-5-methylsulfanyl-thiophene-2-carboxamidine trifluoroacetate] the figure was 6 to 23 nM; with `CSc1sc(C(=N)N)cc1S(=O)(=O)c1cccc(-c2c(C)cc(NC(=N)N)cc2NC(=O)CCCCCCCCCCC(=O)O)c1` [Example 295, 11-[3′-(5-Carbamimidoyl-2-methylsulfanyl-thiophene-3-sulfonyl)-4-guanidino-6-methyl-biphenyl-2-ylcarbamoyl]-undecanoic acid bis-trifluoroacetate], 6 to 23 nM.
With `CSc1sc(C(=N)N)cc1S(=O)(=O)c1cccc(-c2ccc(NC(=O)NCCCS(C)(=O)=O)cc2C)c1` [Example 296, 4-{4′-[3-(3-Methanesulfonyl-propyl)-ureido]-2′-methyl-biphenyl-3-sulfonyl}-5-methylsulfanyl-thiophene-2-carboxamidine trifluoroacetate] the figure was 6 to 23 nM; with `CSc1sc(C(=N)N)cc1S(=O)(=O)c1cccc(-c2ccc(NC(=N)N)cc2C)c1` [Example 314, 4-(4′-Guanidino-2′-methyl-biphenyl-3-sulfonyl)-5-methylsulfanyl-thiophene-2-carboxamidine bis-trifluoroacetate], 6 to 23 nM.
Compound `CO/N=C(\N)Nc1ccc(-c2cccc(S(=O)(=O)c3cc(C(=N)N)sc3SC)c2)c(C)c1` [Example 315, 4-[2′-Methyl-4′-(N′-methoxyl-guanidino)-biphenyl-3-sulfonyl]-5-methylsulfanyl-thiophene-2-carboxamidine bis-trifluoroacetate] gave an inhibition constant (Ki) of 6 to 23 nM.

The term Ki denotes a dissociation constant, usually derived from enzyme kinetics or from competition with a known ligand. A higher Ki goes with weaker binding.
